Test results from patent US20080233159A1, “Home-use insecticide” (priority 2007, published 2008).

Columns and labels:
house flies = details: microdrop method, prallethrin isomers, d/d-trans isomer = 100; cited from earlier work
American cockroaches = test: Residual contact method, test aerosols on decorative sheet; format: in vivo; details: for Mortality after 72 hours, After 1 day of spray: 0.35 g/300 ml aerosol at 25 mL/m^2, 2 hours contact 1 day after spraying
Method: (2-b) Residual Contact Method: The test aerosols were sprayed onto a decorative sheet measuring 20 cm on a side at the rate of 25 mL/m^2. After 1 day of spraying, a glass ring measuring 12 cm in diameter was placed on the decorative sheet and five American cockroaches were contacted with the sheet for 2 hours inside the ring at 1, 7, 15 and 21 days after spraying followed by observation of mortality 72 hours later.

[1] = test system: adult male American cockroaches; test: Turntable method, test aerosols; format: in vivo; details: 0.35 g/300 ml aerosol; for KT50 value: 1 second spray, 5 minutes exposure
From the text: (2-a) Turntable Method: A glass cylinder having an inner diameter of 20 cm and height of 43 cm was placed on a wooden stand and a glass pot (outer diameter: 15 cm, height: 15 cm) containing two adult male American cockroaches was attached directly beneath the cylinder by using a glass plate as a shutter. Test aerosol insecticides prepared in accordance with Example 1 were sprayed into the glass cylinder for 1 second. Five seconds later, the glass plate shutter was pulled out and the test cockroaches were exposed to the descending aerosol particles for 5 minutes. The range of times until the occurrence of knockdown and the approximate average times were determined followed by observation of mortality 24 hours later. This test was repeated six times.

[2] = Solubility / compatibility with kerosene; format: physicochemical
[3] = test system: House flies (female adults); test: Glass chamber method, test aerosols; format: in vivo; details: for Mortality: 10 minutes exposure, kill rate after additional 24 hours; for KT50 value: glass chamber 0.216 m^3, 1 second spray
Method: Glass chamber method: test aerosol insecticides prepared in accordance with Example 1 were sprayed for 1 second in a glass chamber having a volume of 60×60×60 cm (0.216 m^3). House flies (in groups of about 25 female adults each) were released into the chamber 10 seconds later, and the numbers of test […] that fell to the ground and rolled over during 10 minutes of exposure were recorded over the course of time to determine the KT50 values followed by observation of the kill rate after an additional 24 hours.

female house flies = test: Comparative efficacy test by the microdrop method, subject compound and its seven other isomers; format: in vivo; details: for Insecticidal Efficacy Relative efficacy ratio: subject compound = 100
Method: 2-Methyl-4-oxo-3-(2-propynyl)-2-cyclopenten-1-yl 2,2-dimethyl-3-(2,2-dichlorovinyl)cyclopropanecarboxylate has a total of eight isomers based on two asymmetric carbon atoms of the acid portion and one asymmetric carbon atom of the alcohol portion. Therefore, a comparative efficacy test was conducted on female house flies using the microdrop method for the subject compound and the other seven isomers.

Row | Molecule | Relative efficacy ratio (house flies) | Insecticidal Efficacy LD50 (female house flies) | Insecticidal Efficacy Relative efficacy ratio (female house flies) | other results
1 | 2-Methyl-4-oxo-3-(2-propynyl)-2-cyclopenten-1-yl 2,2-dimethyl-3-(2,2-dichlorovinyl)cyclopropanecarboxylate [Compound 2] | 39 | – | – | –
2 | C#CCN1CC(=O)N(COC(=O)[C@@H]2C(C=C(C)C)C2(C)C)C1=O (mixture of isomers) [Imiprothrin, imiprothrin, reference compound] | – | – | – | Mortality after 72 hours, After 1 day of spray (American cockroaches): 0%; Mortality after 24 hours [1]: 83%; KT50 value [1]: 51 s; Solubility in / compatibility with kerosene [2]: extremely poor solubility in kerosene
3 | C#CCC1=C(C)C(OC(=O)[C@H]2[C@H](C=C(Cl)Cl)C2(C)C)CC1=O (relative stereo) [Compound 1, (d)-2-methyl-4-oxo-3-(2-propynyl)-2-cyclopenten-1-yl (d)-trans-2,2-dimethyl-3-(2,2-dichlorovinyl)cyclopropanecarboxylate] | 100 | 0.0263 μg/insect | 100 | Mortality after 72 hours, After 1 day of spray (American cockroaches): 100%; Mortality after 72 hours, After 7 days (American cockroaches; 0.35 g/300 ml aerosol at 25 mL/m^2, 2 hours contact 7 days after spraying): 100%; Mortality after 72 hours, After 15 days (American cockroaches; 0.35 g/300 ml aerosol at 25 mL/m^2, 2 hours contact 15 days after spraying): 100%; Mortality after 72 hours, After 21 days (American cockroaches; 0.35 g/300 ml aerosol at 25 mL/m^2, 2 hours contact 21 days after spraying): 100%; Mortality after 24 hours [1]: 100%; KT50 value [1]: 102 s; Mortality ([3]; 0.15 g/300 ml aerosol): 93.3%; Mortality ([3]; 0.45 g/300 ml aerosol): 100%; KT50 value ([3]; 0.15 g/300 ml aerosol): 73 s; KT50 value ([3]; 0.45 g/300 ml aerosol): 36 s; Solubility in / compatibility with kerosene [2]: satisfactory compatibility with solvents such as kerosene
4 | C#CCC1=C(C)C(OC(=O)C2C(C=C(Cl)Cl)C2(C)C)CC1=O (stereo not drawn) [Compound 2, 2-Methyl-4-oxo-3-(2-propynyl)-2-cyclopenten-1-yl 2,2-dimethyl-3-(2,2-dichlorovinyl)cyclopropanecarboxylate] | – | 0.0415 μg/insect | 63.0 | –
5 | C#CCC1=C(C)C(OC(=O)C2C(C=C(Cl)Cl)C2(C)C)CC1=O (stereo not drawn) [Compound 3, 2-Methyl-4-oxo-3-(2-propynyl)-2-cyclopenten-1-yl 2,2-dimethyl-3-(2,2-dichlorovinyl)cyclopropanecarboxylate] | 17 | 0.245 μg/insect | 11.0 | –
6 | C#CCC1=C(C)C(OC(=O)C2C(C=C(Cl)Cl)C2(C)C)CC1=O (stereo not drawn) [Compound 4, 2-Methyl-4-oxo-3-(2-propynyl)-2-cyclopenten-1-yl 2,2-dimethyl-3-(2,2-dichlorovinyl)cyclopropanecarboxylate] | 13 | 0.376 μg/insect | 7.0 | –
7 | C#CCC1=C(C)C(OC(=O)C2C(C=C(Cl)Cl)C2(C)C)CC1=O (stereo not drawn) [Compound 5, 2-Methyl-4-oxo-3-(2-propynyl)-2-cyclopenten-1-yl 2,2-dimethyl-3-(2,2-dichlorovinyl)cyclopropanecarboxylate] | 1.3 | 0.337 μg/insect | 7.8 | –
8 | C#CCC1=C(C)C(OC(=O)C2C(C=C(Cl)Cl)C2(C)C)CC1=O (stereo not drawn) [Compound 6, 2-Methyl-4-oxo-3-(2-propynyl)-2-cyclopenten-1-yl 2,2-dimethyl-3-(2,2-dichlorovinyl)cyclopropanecarboxylate] | 0.4 | 0.526 μg/insect | 5.0 | –
9 | C#CCC1=C(C)C(OC(=O)C2C(C=C(Cl)Cl)C2(C)C)CC1=O (stereo not drawn) [Compound 7, 2-Methyl-4-oxo-3-(2-propynyl)-2-cyclopenten-1-yl 2,2-dimethyl-3-(2,2-dichlorovinyl)cyclopropanecarboxylate] | 0.2 | 3.29 μg/insect | 0.8 | –
10 | C#CCC1=C(C)C(OC(=O)C2C(C=C(Cl)Cl)C2(C)C)CC1=O (stereo not drawn) [Compound 8, 2-Methyl-4-oxo-3-(2-propynyl)-2-cyclopenten-1-yl 2,2-dimethyl-3-(2,2-dichlorovinyl)cyclopropanecarboxylate] | 0.2 | 5.30 μg/insect | 0.5 | –
11 | d-T80-phthalthrin [reference compound] | – | – | – | Mortality after 24 hours [1]: 33%; KT50 value [1]: >300 s; Mortality ([3]; 0.15 g/300 ml aerosol): 20.0%; Mortality ([3]; 0.45 g/300 ml aerosol): 39.2%; KT50 value ([3]; 0.15 g/300 ml aerosol): 204 s; KT50 value ([3]; 0.45 g/300 ml aerosol): 73 s
